{"source": "patent US20090253794A1", "about": "“Fibroblast Activator, Collagen Production Promoter, Collagen Contraction Promoter, Hyaluronic Acid Production Promoter, ATP Production Promoter, Melanin Formation Inhibitor, and Agent for External Application to the Skin” (priority 2005, published 2009)", "assay_type_in_all_cases": "cell-based", "key": {"[1]": {"system": "normal human skin fibroblasts", "experiment": "collagen gel contraction promoting effect", "details": "one week, negative control = 1", "method": "A collagen solution (collagen was used trade name I-AC manufactured by KOUKEN Co., Ltd.) dissolved in normal human skin fibroblasts (manufactured by KURABO INDUSTRIES LTD., 1×10^5 cells/ml) was prepared on ice according to the explanation insert attached to the product, and the collagen was gelled in 6 wells at 37° C. Thereafter, 0.25% FBS/DMEM medium containing a sample ([…]) was added. The gel was detached from the dish wall, and the level of contraction of the gelled collagen was examined. As a positive control, DMEM medium containing 10% FBS instead of 0.25% FBS was used. The medium was changed every 2 days and, one week later, the medium was removed by suction. The diameter of the collagen gel was measured, the area was calculated, and the area ratio was compared to that of the negative control as 1."}, "human normal melanocytes": {"system": "human normal melanocytes", "experiment": "melanin formation suppression test in human melanocytes (L-DOPA, absorbance 495 nm)", "details": "5 days, relative value, without addition of sample = 100", "method": "A melanin formation suppression test was performed using human melanocytes (manufactured by KURABO INDUSTRIES LTD.). That is, human normal melanocytes amplified in Medium 254 medium (human melanocyte medium added with HMGS, manufactured by KURABO INDUSTRIES LTD.) was added to a 96 well plate at 10^4 cells per well, and cultured in a carbon dioxide incubator adjusted to 5% (v/v) carbon dioxide gas at 37° C. for about 24 hr. Then, pure water or a sample (conagenin) dissolved in pure water was added thereto to a final concentration of 0.1 mM, 1.0 mM or 10 mM. As a positive control, kojic acid (manufactured by Sigma Ltd.) was added to the same concentration. The cells were cultured for 5 more days under the same conditions. To the recovered cells was added 50 μl of cell suspension (PBS buffer containing Triton X-100 at 0.1% (v/v)). After thorough suspending, the suspension was stood at 4° C. for 1 hr. Thereto was added 50 μl of 10 mM L-DOPA (manufactured by Nacalai Tesque), and the mixture was incubated at 37° C. for 1 hr. Thereafter, the absorbance at 495 nm was measured by a plate reader (multiscanplus MKII, manufactured by Japan Flow Laboratory), and the melanin formation amount was measured (shown in a relative value to the value without addition of sample as 100)."}, "human skin fibroblasts": {"system": "human skin fibroblasts", "experiment": "type I collagen gel contractability after glucose modification (glycated collagen)", "details": "one week, negative control = 1", "method": "A collagen solution (collagen was used trade name I-AC, manufactured by KOUKEN Co., Ltd.) was prepared on ice according to the explanation insert attached to the product, and the collagen was gelled in 12 wells at 37° C. A glucose-6-phosphate solution was added to the final concentration of 100 mM, and the mixture was incubated at 37° C. for 7 days to allow glycation reaction. Unreacted glucose-6-phosphate was removed, 1×10^5 cells/ml of fibroblast was sown on the collagen gel, and cultured for 5 hr using a 0.25% FBS/DMEM medium. The medium was removed, and […] or 0.25% FBS/DMEM medium containing PBS as negative control was added. The gel was detached from the dish wall, and the level of contraction of the gelled collagen was examined. As a positive control, DMEM medium containing 10% FBS was used. The medium was changed every 2 days and, one week later, the medium was removed by suction. The diameter of the collagen gel was measured, the area was calculated, and the area ratio was compared to that of the negative control as 1."}, "[2]": {"system": "normal human skin fibroblasts", "experiment": "ATP production promotion (ATP Lite luminescence)", "details": "for ATP amount (average ATP amount without addition of sample is 100): 48 hr, n = 4, mean ± standard deviation", "method": "The evaluation was performed according to the following procedure. Normal human skin fibroblasts (manufactured by KURABO INDUSTRIES LTD.) were plated on a 96 well microplate at 2.0×10^4 cells per well. As the medium for plating, commercially available Medium 106S (manufactured by KURABO INDUSTRIES LTD.) containing 2% FBS, heparin 10 μg/ml and hydrocortisone 1 μg/ml was used. After culture for 24 hr, the medium was changed to a medium supplemented with various concentrations of conagenin, and the cells were cultured for 48 hr.\nThen, the medium was removed from the 96 well microplate, and the amount of ATP synthesized in the cell was measured using a ATP measurement kit (ATP Lite, manufactured by PerkinElmer, Inc.). That is, the cells were washed with PBS(−), the cell membrane was lysed with a Lysis solution, a luminescence substrate was added, and the mixture was transferred to a black 96 well microplate (View Plate). The chemical luminescence was measured with a luminometer. The effect of the sample was evaluated using, as an index, the average ATP amount without addition of the sample as 100. For statistical processing, parametric multiple comparison (Dunnett Type) relative to control group without addition of the sample was performed, wherein a risk rate of less than 5% is indicated with *, a risk rate of less than 1% is indicated with ** and a risk rate of less than 0.1% is indicated with ***."}}, "note": "Marks after values point to notes of the source that are not given here."}
{"smiles": "C[C@@H]([C@@H](C)O)[C@@H](O)C(=O)N[C@@](C)(CO)C(=O)O", "note": "[conagenin, (2S)—N-[(2R,3S,4R)2,4-dihydroxy-3-methyl-pentanoyl]-2-methylserine]", "values": [{"measurement": "collagen gel area ratio", "setting": "[1]; 1 μM in 0.25% FBS/DMEM", "value": 0.47}, {"measurement": "collagen gel area ratio", "setting": "[1]; 100 μM in 0.25% FBS/DMEM", "value": 0.44}, {"measurement": "collagen gel area ratio", "setting": "[1]; 5 mM in 0.25% FBS/DMEM", "value": 0.42}, {"measurement": "melanin formation amount", "setting": "human normal melanocytes; 100 μM", "value": 92}, {"measurement": "melanin formation amount", "setting": "human normal melanocytes; 1 mM", "value": 66}, {"measurement": "melanin formation amount", "setting": "human normal melanocytes; 10 mM", "value": 17}, {"measurement": "collagen gel area ratio", "setting": "human skin fibroblasts; 1 μM", "value": 0.81}, {"measurement": "collagen gel area ratio", "setting": "human skin fibroblasts; 100 μM", "value": 0.64}, {"measurement": "collagen gel area ratio", "setting": "human skin fibroblasts; 5 mM", "value": 0.49}, {"measurement": "ATP amount (average ATP amount without addition of sample is 100)", "setting": "[2]; 0.20 μM", "value": "120 ± 18"}, {"measurement": "ATP amount (average ATP amount without addition of sample is 100)", "setting": "[2]; 0.39 μM", "value": "146 ± 30***"}, {"measurement": "ATP amount (average ATP amount without addition of sample is 100)", "setting": "[2]; 0.78 μM", "value": "128 ± 8*"}, {"measurement": "ATP amount (average ATP amount without addition of sample is 100)", "setting": "[2]; 1.56 μM", "value": "133 ± 8**"}, {"measurement": "ATP amount (average ATP amount without addition of sample is 100)", "setting": "[2]; 3.13 μM", "value": "150 ± 20***"}, {"measurement": "ATP amount (average ATP amount without addition of sample is 100)", "setting": "[2]; 6.25 μM", "value": "155 ± 26***"}, {"measurement": "ATP amount (average ATP amount without addition of sample is 100)", "setting": "[2]; 12.5 μM", "value": "160 ± 7***"}, {"measurement": "ATP amount (average ATP amount without addition of sample is 100)", "setting": "[2]; 25 μM", "value": "153 ± 4***"}, {"measurement": "ATP amount (average ATP amount without addition of sample is 100)", "setting": "[2]; 50 μM", "value": "168 ± 13***"}, {"measurement": "ATP amount (average ATP amount without addition of sample is 100)", "setting": "[2]; 100 μM", "value": "164 ± 16***"}, {"measurement": "concentration at which a statistically significant ATP production promoting action was observed", "setting": "[2]; Dunnett comparison with the group without addition", "value": "not less than 0.39 μM"}]}
